Assay results reported in paper PMC7367925, “The EU-ToxRisk method documentation, data processing and chemical testing pipeline for the regulatory use of new approach methods” (Archives of Toxicology, 2020).
Where two headings read alike, the source gives them in different places.

Key:
[1] = tested on: p53-dependent pathway activation / genotoxicity; format: cell-based, human; settings: for PoD p53: 24 h exposure, lowest effect level FI=1.5, means from 3 assay runs
Protocol: (§1) After 24 h, exposure medium was prepared. […] All samples were tested in triplicates. […] Fig. SM_4. […] Fig. SM_4.
(§2) Supplementary Material SM_4
(§3) Overview of CALUX assays.
(§4) This is defined as the concentration of test compound […]
(§5) for an antagonist assay is a PC20.
(§6) PC = positive control. FI = fold induction. PC10: concentration where test compound causes an activation equal to 10% of the maximum effect (positive control). PC20: concentration where test compound causes […]
(§7) FI=1.5: concentration where test
(§8) (A) exemplary graph of concentration- […]
(§9) receptor antagonism assay with PC20 as lowest-effect-level. (C) exemplary graph for assay with 1.5 fold inductionas lowest effect level. 9

Pregnane X receptor = molecular target: T1, Pregnane X receptor (Homo sapiens, UniProt O75469); assay: PXR CALUX; format: cell-based; settings: 24 h exposure, lowest effect level PC10, means from 3 assay runs
T1 construct: host or cells: U-2 OS
T1 sequence (O75469 1-434): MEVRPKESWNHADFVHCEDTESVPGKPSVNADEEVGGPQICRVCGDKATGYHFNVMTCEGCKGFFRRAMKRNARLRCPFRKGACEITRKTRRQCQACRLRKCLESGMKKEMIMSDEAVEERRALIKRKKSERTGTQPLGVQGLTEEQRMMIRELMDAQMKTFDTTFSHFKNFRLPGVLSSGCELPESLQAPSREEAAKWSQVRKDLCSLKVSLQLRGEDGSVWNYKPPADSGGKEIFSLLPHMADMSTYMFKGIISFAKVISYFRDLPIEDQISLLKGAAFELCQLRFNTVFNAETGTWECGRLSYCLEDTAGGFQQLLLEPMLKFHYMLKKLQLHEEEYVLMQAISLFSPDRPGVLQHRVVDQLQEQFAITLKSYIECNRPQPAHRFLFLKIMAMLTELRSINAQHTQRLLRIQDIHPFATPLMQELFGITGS
Protocol: as §1, §2, §3, §4, §5, §6, §7, §8, §9

[2] = pooled test systems of the NAM panel (all test methods)
[3] = tested on: U-2 OS reporter cell lines battery; assay: CALUX reporter gene assay battery as a whole
U-2 OS cells [4] = assay: Cytotox CALUX; settings: 24 h exposure, lowest effect level PC20, means from 3 assay runs
[5] = molecular target: T2, Aryl Hydrocarbon receptor (Rattus norvegicus, UniProt P41738); assay: DR CALUX / AhR CALUX (rat hepatoma H-4-II-E cells); format: cell-based; settings: 24 h exposure, lowest effect level PC10, means from 3 assay runs
T2 construct: host or cells: rat hepatoma H-4-II-E (ATCC CRL-1548)
T2 sequence (P41738 10-853): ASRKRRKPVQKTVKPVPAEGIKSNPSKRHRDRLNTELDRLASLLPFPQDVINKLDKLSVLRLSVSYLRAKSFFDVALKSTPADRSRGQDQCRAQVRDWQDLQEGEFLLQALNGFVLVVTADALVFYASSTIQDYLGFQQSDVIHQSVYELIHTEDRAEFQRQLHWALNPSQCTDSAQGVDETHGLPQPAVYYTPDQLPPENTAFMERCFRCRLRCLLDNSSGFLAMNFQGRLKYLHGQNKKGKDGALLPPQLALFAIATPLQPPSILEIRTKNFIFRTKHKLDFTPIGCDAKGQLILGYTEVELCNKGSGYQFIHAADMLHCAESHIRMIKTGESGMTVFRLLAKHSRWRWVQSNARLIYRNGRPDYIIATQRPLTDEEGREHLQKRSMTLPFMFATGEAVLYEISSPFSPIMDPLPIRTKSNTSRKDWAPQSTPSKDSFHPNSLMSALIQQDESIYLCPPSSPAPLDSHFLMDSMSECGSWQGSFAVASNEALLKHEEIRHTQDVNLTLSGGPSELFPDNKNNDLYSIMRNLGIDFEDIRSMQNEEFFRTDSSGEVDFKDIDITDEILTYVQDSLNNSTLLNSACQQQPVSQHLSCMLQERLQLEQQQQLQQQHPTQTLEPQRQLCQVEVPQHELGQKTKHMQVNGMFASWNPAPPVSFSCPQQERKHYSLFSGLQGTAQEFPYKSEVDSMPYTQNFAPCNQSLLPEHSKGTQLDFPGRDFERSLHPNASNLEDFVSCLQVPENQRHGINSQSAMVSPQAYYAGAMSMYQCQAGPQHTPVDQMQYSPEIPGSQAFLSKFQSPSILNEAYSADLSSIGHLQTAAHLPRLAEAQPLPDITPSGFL

Progesterone receptor = molecular target: T3, Progesterone receptor (Homo sapiens, UniProt P06401); assay: PR-anti CALUX; format: cell-based; settings: 24 h exposure, lowest effect level PC20, reference agonist at EC50, means from 3 assay runs
T3 construct: host or cells: U-2 OS
T3 sequence (P06401 1-933): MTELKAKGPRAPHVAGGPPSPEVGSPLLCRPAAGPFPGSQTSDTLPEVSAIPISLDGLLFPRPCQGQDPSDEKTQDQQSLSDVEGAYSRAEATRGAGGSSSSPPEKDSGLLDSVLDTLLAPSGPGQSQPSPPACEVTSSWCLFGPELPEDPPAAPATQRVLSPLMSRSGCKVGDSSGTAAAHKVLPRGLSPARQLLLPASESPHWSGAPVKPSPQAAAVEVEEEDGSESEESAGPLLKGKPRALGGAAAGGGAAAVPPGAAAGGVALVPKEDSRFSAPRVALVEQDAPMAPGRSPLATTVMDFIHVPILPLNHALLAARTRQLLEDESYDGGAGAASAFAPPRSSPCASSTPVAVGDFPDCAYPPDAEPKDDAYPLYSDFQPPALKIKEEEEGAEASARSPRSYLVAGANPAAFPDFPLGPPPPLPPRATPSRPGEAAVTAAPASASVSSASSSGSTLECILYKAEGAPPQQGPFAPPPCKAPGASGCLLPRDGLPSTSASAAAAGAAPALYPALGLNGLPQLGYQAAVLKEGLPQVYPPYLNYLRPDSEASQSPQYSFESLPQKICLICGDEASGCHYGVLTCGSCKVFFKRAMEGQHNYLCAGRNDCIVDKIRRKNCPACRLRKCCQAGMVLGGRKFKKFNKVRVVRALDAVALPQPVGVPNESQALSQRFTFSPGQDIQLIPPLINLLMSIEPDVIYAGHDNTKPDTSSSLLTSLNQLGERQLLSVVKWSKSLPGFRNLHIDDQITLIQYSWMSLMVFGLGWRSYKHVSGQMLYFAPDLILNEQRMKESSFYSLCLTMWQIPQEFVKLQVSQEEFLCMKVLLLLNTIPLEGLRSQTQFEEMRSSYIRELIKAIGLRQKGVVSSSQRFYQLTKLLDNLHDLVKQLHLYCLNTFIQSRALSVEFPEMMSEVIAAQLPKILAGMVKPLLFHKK
Protocol: as §1, §2, §3, §4, §5, §6, §7, §8, §9

Nrf2 (Oxidative stress) = assay: Nrf2 CALUX; format: cell-based, human; settings: 24 h exposure, lowest effect level FI=1.5, means from 3 assay runs
Protocol: as §1, §2, §3, §4, §5, §6, §7, §8, §9

Androgen receptor = molecular target: T4, Androgen receptor (Homo sapiens, UniProt P10275); format: cell-based; settings: 24 h exposure, lowest effect level PC20, reference agonist at EC50, means from 3 assay runs
T4 construct: host or cells: U-2 OS
T4 sequence (P10275 1-920): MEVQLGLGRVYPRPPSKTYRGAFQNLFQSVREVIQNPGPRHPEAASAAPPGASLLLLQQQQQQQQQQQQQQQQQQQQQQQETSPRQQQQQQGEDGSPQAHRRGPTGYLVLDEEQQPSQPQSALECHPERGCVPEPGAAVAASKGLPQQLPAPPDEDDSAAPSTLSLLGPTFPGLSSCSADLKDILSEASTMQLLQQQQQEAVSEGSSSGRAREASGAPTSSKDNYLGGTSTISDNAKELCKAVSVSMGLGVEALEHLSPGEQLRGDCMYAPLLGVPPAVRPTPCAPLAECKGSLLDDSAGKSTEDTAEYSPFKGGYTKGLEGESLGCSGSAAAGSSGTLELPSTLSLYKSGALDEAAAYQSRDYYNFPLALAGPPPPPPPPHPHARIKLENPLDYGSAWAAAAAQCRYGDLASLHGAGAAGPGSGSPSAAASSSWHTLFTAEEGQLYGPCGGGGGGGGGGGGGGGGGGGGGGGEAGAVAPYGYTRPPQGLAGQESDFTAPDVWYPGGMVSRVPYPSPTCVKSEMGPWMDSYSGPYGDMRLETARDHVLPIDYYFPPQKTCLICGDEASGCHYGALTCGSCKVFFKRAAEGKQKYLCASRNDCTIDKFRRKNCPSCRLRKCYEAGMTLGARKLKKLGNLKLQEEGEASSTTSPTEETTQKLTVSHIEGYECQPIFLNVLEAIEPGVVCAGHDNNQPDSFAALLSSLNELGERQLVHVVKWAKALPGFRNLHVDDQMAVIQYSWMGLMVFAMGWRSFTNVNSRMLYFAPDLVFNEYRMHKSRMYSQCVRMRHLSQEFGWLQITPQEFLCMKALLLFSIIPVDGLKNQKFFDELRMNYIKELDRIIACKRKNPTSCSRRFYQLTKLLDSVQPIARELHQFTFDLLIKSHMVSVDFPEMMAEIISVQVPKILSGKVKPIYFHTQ
Protocol: as §1, §2, §3, §4, §5, §6, §7, §8, §9

U-2 OS cells [6] = settings: human
[7] = molecular target: T5, Thyroid hormone receptor beta (Homo sapiens, UniProt P10828); assay: TRb-anti CALUX; format: cell-based; settings: 24 h exposure, lowest effect level PC20, reference agonist at EC50, means from 3 assay runs
T5 construct: host or cells: U-2 OS
T5 sequence (P10828 1-461): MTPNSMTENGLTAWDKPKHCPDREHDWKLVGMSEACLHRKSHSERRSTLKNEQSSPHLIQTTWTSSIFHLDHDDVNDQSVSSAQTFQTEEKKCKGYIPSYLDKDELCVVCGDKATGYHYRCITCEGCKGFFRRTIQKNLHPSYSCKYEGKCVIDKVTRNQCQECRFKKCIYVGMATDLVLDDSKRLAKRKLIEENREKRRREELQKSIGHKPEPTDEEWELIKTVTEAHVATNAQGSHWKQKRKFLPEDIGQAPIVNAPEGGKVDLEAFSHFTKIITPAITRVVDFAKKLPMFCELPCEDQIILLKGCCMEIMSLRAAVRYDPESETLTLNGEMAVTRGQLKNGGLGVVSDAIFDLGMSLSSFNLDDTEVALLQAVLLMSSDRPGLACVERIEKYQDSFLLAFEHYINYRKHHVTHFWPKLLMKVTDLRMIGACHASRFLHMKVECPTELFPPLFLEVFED
Protocol: as §1
Cell line Endpoint effect Reference compound […]
Cytotox CALUX Cytoxicity PC20 tributyltinacetate
as §2, §3, §4, §5, §6, §7, §8, §9

[8] = tested on: Transcription of p21 inhibitor of cell cycle progression; assay: p21 CALUX; format: cell-based, human; settings: 24 h exposure, lowest effect level PC10, means from 3 assay runs
Protocol: as §1, §2, §3, §4, §5, §6, §7, §8, §9

[9] = tested on: Endoplasmic reticulum stress; assay: ESRE CALUX; format: cell-based, human; settings: 24 h exposure, lowest effect level PC10, means from 3 assay runs
Protocol: as §1, §2, §3, §4, §5, §6, §7, §8, §9

CNC(=O)Oc1cccc2ccccc12 [Carbaryl]
PoD p53 [1]: 3.8 -log(M) | PoD PXR - ago (Pregnane X receptor): 4.0 -log(M)

CCOC(=O)C(C)(C)Oc1ccc(Cl)cc1 [Clofibrate]
viability [2]: 100% | response profile over the CALUX battery (in words) ([3]; all CALUX assays, 13 concentrations, 24 h exposure): no effect

CC(C)(C)C(O)(CCc1ccc(Cl)cc1)Cn1cncn1 (centres unmarked) [Tebuconazole]
PoD cytotoxicity (U-2 OS cells [4]): 4.3 -log(M) | PoD AhR - ago [5]: 5.1 -log(M) | PoD PR - anta (Progesterone receptor): 5.6 -log(M) | PoD Nrf2 (Nrf2 (Oxidative stress)): 4.2 -log(M) | PoD PXR - ago (Pregnane X receptor): 5.8 -log(M)

C=C(C)[C@H]1Cc2c(ccc3c2O[C@@H]2COc4cc(OC)c(OC)cc4[C@@H]2C3=O)O1 [Rotenone]
PoD p53 [1]: 6.8 -log(M) | PoD cytotoxicity (U-2 OS cells [4]): 5.7 -log(M)

CC(=O)O[C@H]1C(=O)[C@@]2(C)[C@H]([C@H](OC(=O)c3ccccc3)[C@]3(O)C[C@H](OC(=O)[C@H](O)[C@@H](NC(=O)c4ccccc4)c4ccccc4)C(C)=C1C3(C)C)[C@]1(OC(C)=O)CO[C@@H]1C[C@@H]2O [Taxol]
PoD AR - anta (Androgen receptor): 7.3 -log(M) | PoD cytotoxicity (U-2 OS cells [6]): 5.6 | cytotoxic concentration (U-2 OS cells [6]): about 2.5 µM | concentration activating expression of p53 [1]: < 10 nM | PoD p53 [1]: 8.2 -log(M) | PoD PR - anta (Progesterone receptor): 7.4 -log(M) | PoD TRβ - anta [7]: 7.4 -log(M) | PoD p21 [8]: 8.0 -log(M)

CO[C@H]1/C=C/O[C@@]2(C)Oc3c(C)c(O)c4c(O)c(c(/C=N/N5CCN(C)CC5)c(O)c4c3C2=O)NC(=O)/C(C)=C\C=C\[C@H](C)[C@H](O)[C@@H](C)[C@@H](O)[C@@H](C)[C@H](OC(C)=O)[C@@H]1C [Rifampicin]
PoD cytotoxicity (U-2 OS cells [6]): 4.0 | PoD p53 [1]: 4.2 -log(M) | PoD PR - anta (Progesterone receptor): 4.8 -log(M) | PoD ESRE [9]: 4.0 -log(M) | response profile over the CALUX battery (in words) [3]: additionally activated several stress pathway related assays | PoD Nrf2 (Nrf2 (Oxidative stress)): 4.6 -log(M) | PoD PXR - ago (Pregnane X receptor): 7.1 -log(M)
